Data: PMC8512853, “Synthesis, Bioactivity, Pharmacokinetic and Biomimetic Properties of Multi-Substituted Coumarin Derivatives” (Molecules, 2021)

Legend:
[1] = Hydroxyl (HO•) free radical scavenging assay (competition with DMSO)
From the text: The hydroxyl (HO^•) free radical is considered as the most toxic and reactive radical among the ROS, leading to cellular or protein damage, membrane destruction, and even to cellular death when encountered in excess concentration. In this context, the evaluation of the hydroxyl radical scavenging activity of the coumarin analogues was essential. Hydroxyl radicals are mainly produced by the Haber–Weiss reaction in the presence of iron or copper ions. In this protocol, iron-EDTA solution, which catalyzes the autooxidation of ascorbic acid, was used as the hydroxyl radical generation system. In general, the hydroxyl radicals formed oxidize the DMSO to form formaldehyde. The reaction involves the initial interaction of DMSO with the hydroxyl radicals to give methyl radicals, with the final product being formaldehyde, which is determined by Nash method. The intensity of the yellow solution formed was measured at 412 nm against a reagent blank.
For the evaluation of hydroxyl radical scavenging ability, the protocol described by Kontogiorgis et al. was used. In short, each sample was tested in quadruplicate (A, B, C, D). For A and B, 10 μL of coumarin analogs diluted in DMSO (100 mM) were added; for C and D were the respective blanks. Standards (containing DMSO solution) and blanks were all prepared in a similar manner; to the latter an equal amount (10 µL) of solvent was added instead of the tested analogues. According to the protocol described by Klein et al., standard solutions of EDTA, FeCl3, ascorbic acid, and buffer solution (pH 7.4) were also added to each of the tested mixtures. All mixtures were incubated at 37 °C for 30 min, and then 1 mL of Nash solution and […] of CCl3COOH solution were added. After a 10min incubation at 60 °C to allow the formation of the yellow mixture, the absorbance was measured at […].
The results were calculated as performance percentages in relation to the respective standards and blanks according to the following Equation (4):(4) % Scavenging ability= Mean OD(A+B)−Mean OD(C+D)/Mean OD(A+B)

[2] = Inhibition of AAPH induced linoleic acid oxidation (lipid peroxidation)
From the text: AAPH induced linoleic acid oxidation has been developed as a quick and reliable antioxidant activity assay. It is based on the inhibition of linoleic acid oxidation, initiated by the thermal free radical producer 2,2′-azobis(2-amidinopropane) dihydrochloride (AAPH), providing a measure of how efficiently antioxidants protect against lipid oxidation in vitro. Oxidation of exogenous linoleic acid by AAPH is followed by UV spectrophotometry at 234 nm in a highly diluted sample [38].
For the reference sample in a UV cuvette, 10 μL of the test sample (100 μM diluted in DMSO), 10 μL linoleic acid (LA) (16 mM), and buffer solution (pH 7.4) were added to a final volume of 1ml. For the measurement sample, in a UV cuvette, 10 μL of test sample, 50 μL AAPH (40 mM), 10 μL LA, and buffer solution were added to a final volume of 1 mL. Standard and blank samples were prepared in the same way using DMSO (solvent) instead of the tested coumarin analogues. The absorbance was measured after 2 min at 37 °C at 234 nm. Results were obtained via the following Equation (5):(5) %Inhibition=(Standard−Blank)−(Reference Sample−Measurement Sample)/(Standard−Blank) × 100

HaCaT cells = assay: DCF-DA assay (intracellular ROS after H2O2); assay type: cell-based, human; conditions: H2O2 treatment, 24 h; for inhibition at 100 µM: Homo sapiens, 100 μΜ, read-out: DCFDA Assay, % (100 μΜ)
From the text: In the setting of evaluating bioactive compounds in terms of antioxidant capacity in various cell lines, DCF-DA is the most widely used assay for the detection of intracellular H2O2 and oxidative stress. DCF-DA is cell-permeable and is hydrolyzed intracellularly to the DCFH carboxylate anion, which is retained in the cell.
DCFDA is a fluorescent dye that measures the activity of hydroxyl radicals, peroxyl radicals, and other reactive oxygen species (ROS) within the cell. The DCFDA analysis protocol is based on the diffusion of DCFDA into the cell. It is then deacetylated from cellular esterases to a non-fluorescent compound, which is later oxidized by ROS to 2’,7’ -dichlorofluoroscein (DCF). The produced compound (DCF) is fluorescent and is detected by fluorescence spectroscopy at 485/535 nm (excitation/emission).
For the experimental procedure a standard solution of DCF-DA (20mM) in DMSO was prepared which was stored in the dark (−20 °C) until use. In a 96-well plate, cells were cultured to a density of 3 × 10^4 cells/well.
The cells remained in the incubator (37 °C, 5% CO2) for 24 h, after which an appropriate amount of H2O2 (2 mM) was added and the dish was returned for incubation for the next 2 h. This was followed by the addition of the test substances (100μM) and incubation for 24 h. At the end of the treatment time, all wells were washed with PBS, and DCF-DA solution (working concentration: 10 μM) (in 200 μL of nutrient) was added and incubated for 40 min.
After incubation, the medium with the DCF-DA was removed and replaced with FBS-free DMEM. The measurement of the […] was made immediately after that in a plate reader at 495/530 nm (excitation/emission).
All samples were tested in triplicates, against a control (without effects), blank (without cells), and positive control (standard 100 μM Ascorbic acid solution was used).
The percentage of antioxidant capacity (%) was calculated according to the following Equation (6) evaluating the presence of ROS [42]:(6) % AI=( OD Sample 530 nm−Blank)−(OD Control 530 nm−Blank)/(OD Control 530 nm−Blank) × 100

| Structure (SMILES) | HO^• % (100 μΜ) scavenging [1] [%] | AAPH % inhibition (100 μΜ) [2] | DCFDA Assay, % (100 μΜ) (HaCaT cells) | inhibition at 100 µM (HaCaT cells) [%] | IC50 [2] [µM] |
| --- | --- | --- | --- | --- | --- |
| Cc1c(-c2ccc(O)cc2)c(=O)oc2ccccc12 [Compound 4h, 3-(4-hydroxyphenyl)-4-methyl-chromen-2-one] | 72.2 | no | no | – | – |
| Cc1c(-c2cccc(F)c2)c(=O)oc2cccc(O)c12 [Compound 4e, 3-(3-fluorophenyl)-5-hydroxy-4-methyl-chromen-2-one] | 100 | 31.0% | no | – | – |
| CC(=O)Oc1cccc2oc(=O)c(-c3cccc(F)c3)c(C)c12 [Compound 3e, 5-acetyloxy-3-(3-fluorophenyl)-4-methyl-chromen-2-one] | 85.2 | inactive and no | no | – | – |
| Cc1c(-c2ccc(O)cc2)c(=O)oc2ccc(Cl)cc12 [Compound 4j, 6-chloro-3-(4-hydroxyphenyl)-4-methyl-chromen-2-one] | 100 | 36.1% | – | 2.1 | – |
| CC(=O)Oc1ccc(-c2c(C)c3ccccc3oc2=O)cc1 [Compound 3h, 3-(4-acetyloxyphenyl)-4-methyl-chromen-2-one] | 100 | – | no | – | 70.7 |
| CC(=O)Oc1cccc2oc(=O)c(-c3ccccc3F)c(C)c12 [Compound 3d, 5-acetyloxy-3-(2-fluorophenyl)-4-methyl-chromen-2-one] | 100 | – | – | 22.4 | – |
| CC(=O)Oc1ccc(-c2c(C)c3cc(Br)cc(Br)c3oc2=O)cc1OC(C)=O [Compound 3o, 3-(4,5-diacetyloxyphenyl)-6,8-dibromo-4-methyl-chromen-2-one] | 52.1 | – | – | 25.7 | 77.2 |
| CC(=O)Oc1ccc(-c2c(C)c3ccccc3oc2=O)cc1OC(C)=O [Compound 3l, 3-(4,5-diacetyloxyphenyl)-4-methyl-chromen-2-one] | 10.7 | – | no | – | 85.5 |
| Cc1c(-c2ccccc2F)c(=O)oc2cccc(O)c12 [Compound 4d, 3-(2-fluorophenyl)-5-hydroxy-4-methyl-chromen-2-one] | 21.9 | 0.0% | no | – | – |
| CC(=O)Oc1ccc(-c2c(C)c3cc(Cl)ccc3oc2=O)cc1 [Compound 3j, 3-(4-acetyloxyphenyl)-6-chloro-4-methyl-chromen-2-one] | 26.6 | no | – | 9 | – |
| CC(=O)Oc1ccc(-c2c(C)c3cc(Br)ccc3oc2=O)cc1OC(C)=O [Compound 3m, 3-(4,5-diacetyloxyphenyl)-6-bromo-4-methyl-chromen-2-one] | 46.7 | – | no | – | 37.1 |
| Cc1c(-c2cccc(Cl)c2)c(=O)oc2cccc(O)c12 [Compound 4b, 3-(3-chlorophenyl)-5-hydroxy-4-methyl-chromen-2-one] | 100 | no | – | 27.4 | – |
| CC(=O)Oc1ccc(-c2c(C)c3cc(Br)cc(Br)c3oc2=O)cc1 [Compound 3k, 3-(4-acetyloxyphenyl)-6,8-dibromo-4-methyl-chromen-2-one] | 92.9 | inactive and no | no | – | – |
| Cc1c(-c2ccc(F)cc2)c(=O)oc2cccc(O)c12 [Compound 4f, 3-(4-fluorophenyl)-5-hydroxy-4-methyl-chromen-2-one] | 99.4 | – | no | – | 86.8 |
| Cc1c(-c2ccccc2Cl)c(=O)oc2cccc(O)c12 [Compound 4a, 3-(2-chlorophenyl)-5-hydroxy-4-methyl-chromen-2-one] | 37.3 | no | – | 0 | – |
| CC(=O)Oc1cccc2oc(=O)c(-c3cccc(Cl)c3)c(C)c12 [Compound 3b, 5-acetyloxy-3-(3-chlorophenyl)-4-methyl-chromen-2-one] | 96.4 | – | – | 56.9 | 91.5 |
| Cc1c(-c2ccc(O)cc2)c(=O)oc2c(Br)cc(Br)cc12 [Compound 4k, 6,8-dibromo-3-(4-hydroxyphenyl)-4-methyl-chromen-2-one] | 100 | – | no | – | 36.9 |
| CC(=O)Oc1cccc2oc(=O)c(-c3ccc(Cl)cc3)c(C)c12 [Compound 3c, 5-acetyloxy-3-(4-chlorophenyl)-4-methyl-chromen-2-one] | 30.8 | – | no | – | 75.1 |
| Cc1c(-c2ccc(Cl)cc2)c(=O)oc2cccc(O)c12 [Compound 4c, 3-(4-chlorophenyl)-5-hydroxy-4-methyl-chromen-2-one] | 48.5 | – | no | – | 86.6 |
| CC(=O)Oc1cccc2oc(=O)c(-c3ccccc3Cl)c(C)c12 [Compound 3a, 5-acetyloxy-3-(2-chlorophenyl)-4-methyl-chromen-2-one] | 97.0 | – | – | 33.8 | 71.9 |
| CC(=O)Oc1cccc2oc(=O)c(-c3ccc(F)cc3)c(C)c12 [Compound 3f, 5-acetyloxy-3-(4-fluorophenyl)-4-methyl-chromen-2-one] | 71.6 | – | – | 100 | – |
| Cc1c(-c2ccc(O)cc2)c(=O)oc2ccc(Br)cc12 [Compound 4i, 6-bromo-3-(4-hydroxyphenyl)-4-methyl-chromen-2-one] | 100 | – | – | 100 | 70.7 |
| CC(=O)Oc1ccc(-c2c(C)c3cc(Cl)ccc3oc2=O)cc1OC(C)=O [Compound 3n, 3-(4,5-diacetyloxyphenyl)-6-chloro-4-methyl-chromen-2-one] | 65.7 | – | no | – | 84.3 |
| CC(=O)Oc1cccc2oc(=O)c(-c3cccc(Br)c3)c(C)c12 [Compound 3g, 5-acetyloxy-3-(3-bromophenyl)-4-methyl-chromen-2-one] | 42.0 | – | – | 45.5 | 50.7 |
| CC(=O)Oc1ccc(-c2c(C)c3cc(Br)ccc3oc2=O)cc1 [Compound 3i, 3-(4-acetyloxyphenyl)-6-bromo-4-methyl-chromen-2-one] | 64.5 | – | – | 80.9 | 70.7 |
